# Data as given in patent US10844077B2, “Thiazolyl-containing compounds for treating proliferative diseases” (Dana-Farber Cancer Institute, Inc., priority 2014, dated 2020).
# “And” between values parts separate entries of the source, which are not always exact repeats. Identical values can stand only once.
# How the values were obtained:
# Assay in all cases: KINATIV assay
# Assay type in all cases: cell-based
# Conditions in all cases: 1 μM, 90 minutes, BCWM.1 cells
# ABL, ARG = system: ABL, ARG
# Method in brief: (§1)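 Cell lysate + ATP-biotin probe (direct labeling); bound kinases ID'd/quantitated by ACTIVX. Cpds in duplicate vs duplicate or quadruplicate controls.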
# BRAF = BRAF (Homo sapiens (Human), UniProt P15056)
# Method in brief: as §1
# BTK = BTK (Homo sapiens (Human), UniProt Q06187)
# Method in brief: as §1
# CK1a = CK1a (Homo sapiens (Human), UniProt P48729)
# Method in brief: as §1
# CK2a2 = CK2a2 (Homo sapiens (Human), UniProt P19784)
# Method in brief: as §1
# CaMK1d = CaMK1d (Homo sapiens (Human), UniProt Q8IU85)
# Method in brief: as §1
# CaMK2g = CaMK2g (Homo sapiens (Human), UniProt Q13555)
# Method in brief: as §1
# EphB2 = EphB2 (Homo sapiens (Human), UniProt P29323)
# Method in brief: as §1
# FRAP = FRAP (Homo sapiens (Human), UniProt P42345)
# Method in brief: as §1
# FRK = FRK (Homo sapiens (Human), UniProt P42685)
# Method in brief: as §1
# FYN, SRC, YES = system: FYN, SRC, YES
# Method in brief: as §1
# GCN2 = GCN2 (Homo sapiens (Human), UniProt Q9P2K8)
# Method in brief: as §1
# GSK3A = GSK3A (Homo sapiens (Human), UniProt P49840)
# Method in brief: as §1
# JAK1 = JAK1 (Homo sapiens (Human), UniProt P23458)
# Method in brief: as §1
# KSR1, KSR2 = system: KSR1, KSR2
# Method in brief: as §1
# LYN = LYN (Homo sapiens (Human), UniProt P07948)
# Method in brief: as §1
# MAP3K15, MAP3K5, MAP3K6 = system: MAP3K15, MAP3K5, MAP3K6
# Method in brief: as §1
# MAP3K3 = MAP3K3 (Homo sapiens (Human), UniProt Q99759)
# Method in brief: as §1
# MAP3K5 = MAP3K5 (Homo sapiens (Human), UniProt Q99683)
# Method in brief: as §1
# MARK2, MARK3 = system: MARK2, MARK3
# Method in brief: as §1
# MAST1, MAST2 = system: MAST1, MAST2
# Method in brief: as §1
# MAST3 = MAST3 (Homo sapiens (Human), UniProt O60307)
# Method in brief: as §1
# MLKL = MLKL (Homo sapiens (Human), UniProt Q8NB16)
# Method in brief: as §1
# MSK1, MSK2 domain1 = system: MSK1, MSK2 domain1
# Method in brief: as §1
# MSK2 domain1 = MSK2 domain1 (Homo sapiens (Human), UniProt O75676)
# Method in brief: as §1
# MST1, MST2 = system: MST1, MST2
# Method in brief: as §1
# MST4 = MST4 (Homo sapiens (Human), UniProt Q9P289)
# Method in brief: as §1
# MST4, YSK1 = system: MST4, YSK1
# Method in brief: as §1
# NEK8 = NEK8 (Homo sapiens (Human), UniProt Q86SG6)
# Method in brief: as §1
# PAN3 = PAN3 (Homo sapiens (Human), UniProt Q58A45)
# Method in brief: as §1
# PEK = PEK (Homo sapiens (Human), UniProt Q9NZJ5)
# Method in brief: as §1
# PHKg2 = PHKg2 (Homo sapiens (Human), UniProt P15735)
# Method in brief: as §1
# PIP4K2C = PIP4K2C (Homo sapiens (Human), UniProt Q8TBX8)
# Method in brief: as §1
# PKD1, PKD2 = system: PKD1, PKD2
# Method in brief: as §1
# PYK2 = PYK2 (Homo sapiens (Human), UniProt Q14289)
# Method in brief: as §1
# SRC = SRC (Homo sapiens (Human), UniProt P12931)
# Method in brief: as §1
# SRPK1 = SRPK1 (Homo sapiens (Human), UniProt Q96SB4)
# Method in brief: as §1
# SRPK1, SRPK2 = system: SRPK1, SRPK2
# Method in brief: as §1
# TAO1, TAO3 = system: TAO1, TAO3
# Method in brief: as §1
# TAO2 = TAO2 (Homo sapiens (Human), UniProt Q9UL54)
# Method in brief: as §1
# VRK2 = VRK2 (Homo sapiens (Human), UniProt Q86Y07)
# Method in brief: as §1
# YSK1 = YSK1 (Homo sapiens (Human), UniProt O00506)
# Method in brief: as §1
# Chain of CaMK1d (Q8IU85 whole entry): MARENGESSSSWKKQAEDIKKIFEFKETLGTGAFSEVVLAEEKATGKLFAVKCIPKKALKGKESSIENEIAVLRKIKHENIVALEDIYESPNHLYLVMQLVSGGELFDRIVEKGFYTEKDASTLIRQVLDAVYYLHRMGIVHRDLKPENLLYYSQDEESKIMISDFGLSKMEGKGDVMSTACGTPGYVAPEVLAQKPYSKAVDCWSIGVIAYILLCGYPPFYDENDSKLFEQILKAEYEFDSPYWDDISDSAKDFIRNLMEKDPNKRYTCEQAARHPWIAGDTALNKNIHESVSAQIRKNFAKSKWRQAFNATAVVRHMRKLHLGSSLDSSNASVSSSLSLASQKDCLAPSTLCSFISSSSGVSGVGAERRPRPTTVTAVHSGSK
# Chain of PIP4K2C (Q8TBX8 whole entry): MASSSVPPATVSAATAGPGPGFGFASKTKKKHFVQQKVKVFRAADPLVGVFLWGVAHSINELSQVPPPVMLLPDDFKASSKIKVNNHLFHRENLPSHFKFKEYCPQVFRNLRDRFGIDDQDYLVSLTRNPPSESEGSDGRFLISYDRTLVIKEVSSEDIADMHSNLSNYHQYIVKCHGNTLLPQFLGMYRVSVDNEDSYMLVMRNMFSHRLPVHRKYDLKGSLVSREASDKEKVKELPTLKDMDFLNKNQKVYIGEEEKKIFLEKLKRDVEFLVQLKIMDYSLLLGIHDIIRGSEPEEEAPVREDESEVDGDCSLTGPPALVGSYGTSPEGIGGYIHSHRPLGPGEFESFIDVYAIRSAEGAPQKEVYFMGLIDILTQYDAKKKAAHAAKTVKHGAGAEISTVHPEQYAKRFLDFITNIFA
# Chain of PYK2 (Q14289 whole entry): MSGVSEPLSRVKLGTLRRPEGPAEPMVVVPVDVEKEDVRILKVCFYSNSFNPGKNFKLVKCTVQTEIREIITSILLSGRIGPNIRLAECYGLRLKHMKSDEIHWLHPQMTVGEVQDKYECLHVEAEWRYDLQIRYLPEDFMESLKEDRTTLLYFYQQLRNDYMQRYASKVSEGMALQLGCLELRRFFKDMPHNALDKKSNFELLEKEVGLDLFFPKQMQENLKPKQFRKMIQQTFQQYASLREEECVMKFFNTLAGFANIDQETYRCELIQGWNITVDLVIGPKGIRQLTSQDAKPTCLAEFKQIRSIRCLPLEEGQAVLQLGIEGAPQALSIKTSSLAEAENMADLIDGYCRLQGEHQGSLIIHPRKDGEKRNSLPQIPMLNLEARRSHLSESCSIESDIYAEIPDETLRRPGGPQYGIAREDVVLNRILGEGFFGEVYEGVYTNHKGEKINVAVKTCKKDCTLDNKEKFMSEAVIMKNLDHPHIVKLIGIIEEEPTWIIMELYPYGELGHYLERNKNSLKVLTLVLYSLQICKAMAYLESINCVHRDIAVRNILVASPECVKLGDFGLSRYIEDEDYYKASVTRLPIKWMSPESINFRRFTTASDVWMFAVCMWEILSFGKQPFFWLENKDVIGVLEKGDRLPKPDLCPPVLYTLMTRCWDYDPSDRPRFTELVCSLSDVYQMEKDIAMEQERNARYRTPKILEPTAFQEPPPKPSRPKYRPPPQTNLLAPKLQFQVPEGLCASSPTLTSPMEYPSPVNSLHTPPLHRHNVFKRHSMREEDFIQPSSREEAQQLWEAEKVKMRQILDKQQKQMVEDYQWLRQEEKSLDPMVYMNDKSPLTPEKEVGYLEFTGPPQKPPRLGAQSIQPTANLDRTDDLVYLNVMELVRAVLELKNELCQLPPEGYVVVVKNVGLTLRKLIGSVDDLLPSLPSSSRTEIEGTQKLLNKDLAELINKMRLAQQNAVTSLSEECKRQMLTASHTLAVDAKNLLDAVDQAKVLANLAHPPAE
# Chain of BTK (Q06187 whole entry, looked up): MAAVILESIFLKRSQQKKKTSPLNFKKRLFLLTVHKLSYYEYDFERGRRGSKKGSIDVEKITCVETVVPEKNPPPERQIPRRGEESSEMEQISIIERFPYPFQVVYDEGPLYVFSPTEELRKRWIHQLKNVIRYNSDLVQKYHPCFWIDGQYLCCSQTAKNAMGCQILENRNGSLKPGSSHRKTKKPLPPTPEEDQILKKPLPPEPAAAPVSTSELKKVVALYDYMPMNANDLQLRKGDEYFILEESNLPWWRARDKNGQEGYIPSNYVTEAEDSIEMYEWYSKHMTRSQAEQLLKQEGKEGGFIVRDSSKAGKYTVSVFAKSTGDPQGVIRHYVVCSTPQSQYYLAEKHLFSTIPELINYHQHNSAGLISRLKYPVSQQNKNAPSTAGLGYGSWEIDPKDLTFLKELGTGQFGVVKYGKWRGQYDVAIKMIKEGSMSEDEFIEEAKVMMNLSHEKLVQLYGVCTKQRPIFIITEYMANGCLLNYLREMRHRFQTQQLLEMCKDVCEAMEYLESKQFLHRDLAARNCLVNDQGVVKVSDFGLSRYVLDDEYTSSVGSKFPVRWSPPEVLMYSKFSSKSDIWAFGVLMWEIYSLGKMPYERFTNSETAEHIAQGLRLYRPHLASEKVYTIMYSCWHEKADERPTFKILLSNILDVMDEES
# Chain of GCN2 (Q9P2K8 whole entry): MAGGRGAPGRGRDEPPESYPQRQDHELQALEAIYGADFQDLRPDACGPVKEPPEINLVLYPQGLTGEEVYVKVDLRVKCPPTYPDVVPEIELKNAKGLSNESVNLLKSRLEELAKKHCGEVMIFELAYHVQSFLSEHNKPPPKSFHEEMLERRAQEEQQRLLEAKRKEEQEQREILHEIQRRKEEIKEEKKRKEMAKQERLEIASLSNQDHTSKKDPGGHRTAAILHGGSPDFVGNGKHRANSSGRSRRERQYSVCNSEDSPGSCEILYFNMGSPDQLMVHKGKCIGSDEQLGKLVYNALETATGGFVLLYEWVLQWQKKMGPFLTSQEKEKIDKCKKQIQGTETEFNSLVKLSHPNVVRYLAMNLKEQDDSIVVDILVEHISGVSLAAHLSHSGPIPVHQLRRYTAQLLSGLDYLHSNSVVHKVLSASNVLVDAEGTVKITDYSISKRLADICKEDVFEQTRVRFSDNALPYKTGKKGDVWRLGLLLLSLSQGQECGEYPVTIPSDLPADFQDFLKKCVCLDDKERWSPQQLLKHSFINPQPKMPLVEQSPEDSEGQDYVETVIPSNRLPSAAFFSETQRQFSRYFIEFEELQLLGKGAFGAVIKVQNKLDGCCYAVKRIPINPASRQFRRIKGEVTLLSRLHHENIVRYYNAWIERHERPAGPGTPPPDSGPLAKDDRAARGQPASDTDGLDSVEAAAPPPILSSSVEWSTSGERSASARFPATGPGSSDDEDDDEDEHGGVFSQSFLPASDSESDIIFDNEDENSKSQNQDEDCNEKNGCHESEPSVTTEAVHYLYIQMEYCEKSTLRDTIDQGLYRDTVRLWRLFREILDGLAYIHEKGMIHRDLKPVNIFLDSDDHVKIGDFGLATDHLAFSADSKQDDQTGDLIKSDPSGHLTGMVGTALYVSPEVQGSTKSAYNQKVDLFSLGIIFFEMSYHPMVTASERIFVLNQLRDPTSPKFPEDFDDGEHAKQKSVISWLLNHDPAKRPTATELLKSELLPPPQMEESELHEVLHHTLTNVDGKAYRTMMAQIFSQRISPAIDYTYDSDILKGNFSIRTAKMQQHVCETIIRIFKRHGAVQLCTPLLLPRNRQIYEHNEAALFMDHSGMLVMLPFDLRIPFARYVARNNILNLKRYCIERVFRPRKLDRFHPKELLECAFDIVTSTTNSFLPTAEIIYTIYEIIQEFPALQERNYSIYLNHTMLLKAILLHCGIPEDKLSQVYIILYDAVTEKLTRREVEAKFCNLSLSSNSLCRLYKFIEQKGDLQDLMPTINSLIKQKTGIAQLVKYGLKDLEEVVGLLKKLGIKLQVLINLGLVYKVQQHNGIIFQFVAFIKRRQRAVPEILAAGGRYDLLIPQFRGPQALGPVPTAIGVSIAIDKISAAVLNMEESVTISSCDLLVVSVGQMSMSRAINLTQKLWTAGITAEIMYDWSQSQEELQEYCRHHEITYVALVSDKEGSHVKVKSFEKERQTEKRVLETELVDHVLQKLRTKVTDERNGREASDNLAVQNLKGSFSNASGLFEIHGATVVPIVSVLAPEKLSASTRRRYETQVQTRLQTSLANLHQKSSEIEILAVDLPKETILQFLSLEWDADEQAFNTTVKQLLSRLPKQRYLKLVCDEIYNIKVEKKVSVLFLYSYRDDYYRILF
# Chain of LYN (P07948 whole entry): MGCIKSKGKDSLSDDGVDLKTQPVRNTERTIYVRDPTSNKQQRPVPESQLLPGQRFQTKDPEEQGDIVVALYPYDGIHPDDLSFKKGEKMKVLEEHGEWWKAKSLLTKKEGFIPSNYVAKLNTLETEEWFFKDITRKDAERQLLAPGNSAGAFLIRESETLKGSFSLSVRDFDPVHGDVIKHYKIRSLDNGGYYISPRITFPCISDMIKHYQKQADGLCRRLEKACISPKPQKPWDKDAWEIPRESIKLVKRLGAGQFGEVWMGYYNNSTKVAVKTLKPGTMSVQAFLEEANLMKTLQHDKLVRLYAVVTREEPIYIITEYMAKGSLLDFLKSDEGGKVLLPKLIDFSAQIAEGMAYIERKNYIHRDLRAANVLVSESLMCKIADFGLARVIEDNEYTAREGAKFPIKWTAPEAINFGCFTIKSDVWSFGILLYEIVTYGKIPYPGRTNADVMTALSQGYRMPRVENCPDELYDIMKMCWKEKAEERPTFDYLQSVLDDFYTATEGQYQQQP
# Chain of YSK1 (O00506 whole entry): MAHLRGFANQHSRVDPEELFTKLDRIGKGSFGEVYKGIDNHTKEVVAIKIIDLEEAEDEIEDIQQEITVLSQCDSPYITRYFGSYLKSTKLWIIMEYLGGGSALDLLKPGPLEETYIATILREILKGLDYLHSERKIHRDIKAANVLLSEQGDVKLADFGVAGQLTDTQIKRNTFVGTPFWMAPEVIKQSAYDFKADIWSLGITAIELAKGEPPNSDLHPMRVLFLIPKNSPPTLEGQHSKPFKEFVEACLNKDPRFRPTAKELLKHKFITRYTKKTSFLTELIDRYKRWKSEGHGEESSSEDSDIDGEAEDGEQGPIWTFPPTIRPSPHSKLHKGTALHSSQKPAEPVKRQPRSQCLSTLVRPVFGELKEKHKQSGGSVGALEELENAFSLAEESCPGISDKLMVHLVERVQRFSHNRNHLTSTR
compound,measurement,setting,value
C=CC(=O)N1CCCCC(Nc2nccc(Nc3ncc(C(=O)Nc4c(C)cccc4C)s3)n2)C1 (stereo not drawn) [Example I-7],% change of MS signal compared to control sample,"ABL, ARG",>90% and >97%
same,% change of MS signal compared to control sample,BRAF,21.7%
same,% change of MS signal compared to control sample,BTK,98.9% and >90%
same,% change of MS signal compared to control sample,CK1a,−0.7%
same,% change of MS signal compared to control sample,CK2a2,−6.4%
same,% change of MS signal compared to control sample,CaMK1d,−19.1% and −16.0%
same,% change of MS signal compared to control sample,CaMK2g,−12.8%
same,% change of MS signal compared to control sample,EphB2,>90%
same,% change of MS signal compared to control sample,FRAP,−3.5%
same,% change of MS signal compared to control sample,FRK,93.3%
same,% change of MS signal compared to control sample,"FYN, SRC, YES",98.4%
same,% change of MS signal compared to control sample,GCN2,−13.3% and −6.3%
same,% change of MS signal compared to control sample,GSK3A,−11.3%
same,% change of MS signal compared to control sample,JAK1,7.5%
same,% change of MS signal compared to control sample,"KSR1, KSR2",−10.1%
same,% change of MS signal compared to control sample,LYN,>97% and >90%
same,% change of MS signal compared to control sample,"MAP3K15, MAP3K5, MAP3K6",4.0%
same,% change of MS signal compared to control sample,MAP3K3,42.8%
same,% change of MS signal compared to control sample,MAP3K5,−9.3%
same,% change of MS signal compared to control sample,"MARK2, MARK3",−11.0%
same,% change of MS signal compared to control sample,"MAST1, MAST2",−35.0%
same,% change of MS signal compared to control sample,MAST3,−1.6%
same,% change of MS signal compared to control sample,MLKL,−6.3%
same,% change of MS signal compared to control sample,"MSK1, MSK2 domain1",−40.4%
same,% change of MS signal compared to control sample,MSK2 domain1,−45.3%
same,% change of MS signal compared to control sample,"MST1, MST2",9.5%
same,% change of MS signal compared to control sample,MST4,11.6%
same,% change of MS signal compared to control sample,"MST4, YSK1",12.7%
same,% change of MS signal compared to control sample,NEK8,12.2%
same,% change of MS signal compared to control sample,PAN3,−0.2%
same,% change of MS signal compared to control sample,PEK,2.6%
same,% change of MS signal compared to control sample,PHKg2,0.6%
same,% change of MS signal compared to control sample,PIP4K2C,70.9% and 60.1%
same,% change of MS signal compared to control sample,"PKD1, PKD2",−8.3%
same,% change of MS signal compared to control sample,PYK2,16.6% and 28.4%
same,% change of MS signal compared to control sample,SRC,>90%
same,% change of MS signal compared to control sample,SRPK1,1.2%
same,% change of MS signal compared to control sample,"SRPK1, SRPK2",17.3%
same,% change of MS signal compared to control sample,"TAO1, TAO3",−1.8%
same,% change of MS signal compared to control sample,TAO2,−18.0%
same,% change of MS signal compared to control sample,VRK2,−2.3%
same,% change of MS signal compared to control sample,YSK1,−19.9%
